{
  "source": "patent US8592174B2",
  "about": "“Peptidase substrates” (bioMérieux, S.A., priority 2009, dated 2013)",
  "key": {"[1]": {"tested_on": "Escherichia coli NCTC 10 418", "assay": "Peptidase detection on Columbia medium (Example 2)", "assay_type": "cell-based", "parameters": "key to Growth: NG: No growth; 0.5: weak growth; 1: moderate growth; 2: good growth", "settings": "40 mg in 400 ml Columbia, 24 h 37° C."}, "[2]": {"tested_on": "Serratia marcescens NCTC 10 211", "assay": "Peptidase detection on Columbia medium (Example 2)", "assay_type": "cell-based", "parameters": "key to Growth: NG: No growth; 0.5: weak growth; 1: moderate growth; 2: good growth", "settings": "40 mg in 400 ml Columbia, 24 h 37° C."}, "[3]": {"tested_on": "Pseudomonas aeruginosa NCTC 10 662", "assay": "Peptidase detection on Columbia medium (Example 2)", "assay_type": "cell-based", "parameters": "key to Growth: NG: No growth; 0.5: weak growth; 1: moderate growth; 2: good growth", "settings": "40 mg in 400 ml Columbia, 24 h 37° C."}, "[4]": {"tested_on": "Yersinia enterocolitica NCTC 11 176", "assay": "Peptidase detection on Columbia medium (Example 2)", "assay_type": "cell-based", "parameters": "key to Growth: NG: No growth; 0.5: weak growth; 1: moderate growth; 2: good growth", "settings": "40 mg in 400 ml Columbia, 24 h 37° C."}, "[5]": {"tested_on": "Salmonella typhimurium NCTC 74", "assay": "Peptidase detection on Columbia medium (Example 2)", "assay_type": "cell-based", "parameters": "key to Growth: NG: No growth; 0.5: weak growth; 1: moderate growth; 2: good growth", "settings": "40 mg in 400 ml Columbia, 24 h 37° C."}, "[6]": {"tested_on": "Enterobacter cloacae NCTC 11 936", "assay": "Peptidase detection on Columbia medium (Example 2)", "assay_type": "cell-based", "parameters": "key to Growth: NG: No growth; 0.5: weak growth; 1: moderate growth; 2: good growth", "settings": "40 mg in 400 ml Columbia, 24 h 37° C."}, "[7]": {"tested_on": "Providencia rettgeri NCTC 7 475", "assay": "Peptidase detection on Columbia medium (Example 2)", "assay_type": "cell-based", "parameters": "key to Growth: NG: No growth; 0.5: weak growth; 1: moderate growth; 2: good growth", "settings": "40 mg in 400 ml Columbia, 24 h 37° C."}, "[8]": {"tested_on": "Bacillus subtilis NCTC 9 372", "assay": "Peptidase detection on Columbia medium (Example 2)", "assay_type": "cell-based", "parameters": "key to Growth: NG: No growth; 0.5: weak growth; 1: moderate growth; 2: good growth; key to Fluo. / Color / Color post-acid.: —: no color", "settings": "40 mg in 400 ml Columbia, 24 h 37° C."}, "[9]": {"tested_on": "Enterococcus faecalis NCTC 775", "assay": "Peptidase detection on Columbia medium (Example 2)", "assay_type": "cell-based", "parameters": "key to Growth: NG: No growth; 0.5: weak growth; 1: moderate growth; 2: good growth; key to Fluo. / Color / Color post-acid.: —: no color", "settings": "40 mg in 400 ml Columbia, 24 h 37° C."}, "[10]": {"tested_on": "Enterococcus faecium NCTC 7 171", "assay": "Peptidase detection on Columbia medium (Example 2)", "assay_type": "cell-based", "parameters": "key to Growth: NG: No growth; 0.5: weak growth; 1: moderate growth; 2: good growth; key to Fluo. / Color / Color post-acid.: —: no color", "settings": "40 mg in 400 ml Columbia, 24 h 37° C."}, "[11]": {"tested_on": "Staphylococcus epidermidis NCTC 11 047", "assay": "Peptidase detection on Columbia medium (Example 2)", "assay_type": "cell-based", "parameters": "key to Growth: NG: No growth; 0.5: weak growth; 1: moderate growth; 2: good growth; key to Fluo. / Color / Color post-acid.: —: no color", "settings": "40 mg in 400 ml Columbia, 24 h 37° C."}, "[12]": {"tested_on": "Staphylococcus aureus NCTC 6 571", "assay": "Peptidase detection on Columbia medium (Example 2)", "assay_type": "cell-based", "parameters": "key to Growth: NG: No growth; 0.5: weak growth; 1: moderate growth; 2: good growth; key to Fluo. / Color / Color post-acid.: —: no color", "settings": "40 mg in 400 ml Columbia, 24 h 37° C."}, "[13]": {"tested_on": "Staphylococcus aureus NCTC 11 939", "assay": "Peptidase detection on Columbia medium (Example 2)", "assay_type": "cell-based", "parameters": "key to Growth: NG: No growth; 0.5: weak growth; 1: moderate growth; 2: good growth; key to Fluo. / Color / Color post-acid.: —: no color", "settings": "40 mg in 400 ml Columbia, 24 h 37° C."}, "[14]": {"tested_on": "Streptococcus pyogenes NCTC 8 306", "assay": "Peptidase detection on Columbia medium (Example 2)", "assay_type": "cell-based", "parameters": "key to Growth: NG: No growth; 0.5: weak growth; 1: moderate growth; 2: good growth; key to Fluo. / Color / Color post-acid.: —: no color", "settings": "40 mg in 400 ml Columbia, 24 h 37° C."}, "[15]": {"tested_on": "Listeria monocytogenes NCTC 11 994", "assay": "Peptidase detection on Columbia medium (Example 2)", "assay_type": "cell-based", "parameters": "key to Growth: NG: No growth; 0.5: weak growth; 1: moderate growth; 2: good growth; key to Fluo. / Color / Color post-acid.: —: no color", "settings": "40 mg in 400 ml Columbia, 24 h 37° C."}, "[16]": {"tested_on": "Candida albicans ATCC 90 028", "assay": "Peptidase detection on Columbia medium (Example 2)", "assay_type": "cell-based", "parameters": "key to Growth: NG: No growth; 0.5: weak growth; 1: moderate growth; 2: good growth; key to Fluo. / Color / Color post-acid.: —: no color", "settings": "40 mg in 400 ml Columbia, 24 h 37° C."}, "[17]": {"tested_on": "Candida glabrata NCPF 3 943", "assay": "Peptidase detection on Columbia medium (Example 2)", "assay_type": "cell-based", "parameters": "key to Growth: NG: No growth; 0.5: weak growth; 1: moderate growth; 2: good growth; key to Fluo. / Color / Color post-acid.: —: no color", "settings": "40 mg in 400 ml Columbia, 24 h 37° C."}, "[18]": {"tested_on": "Gram-negative bacteria, Gram-positive bacteria, yeasts", "settings": "conclusion of Example 2", "description": "40 mg of each of the substrates were dissolved in 4 ml of dimethyl sulfoxide (80 mg for Asn-ASQM^+) and added to 400 ml of previously autoclaved Columbia medium. The 6 media were distributed into Petri dishes 90 mm in diameter, in a proportion of 20 ml per dish.\nSeventeen strains of microorganisms stemming from collections and belonging to various species of bacteria and yeasts are inoculated in spots of approximately 10 000 colony-forming units.\nThe media are incubated for 24 hours at 37° C., and then the colonies formed are examined visually, with or without the addition of acid and under a UV lamp at 365 nm."}},
  "data": [
    {"smiles": "NCCC(=O)Nc1ccc(C=Cc2ccc3ccccc3n2)cc1", "note": "[β-Ala-ASQ, β-alanyl-2-(4′-amidostyryl)quinoline]", "values": [
      {"measurement": "Growth", "setting": "[1]", "value": 2},
      {"measurement": "Color post-acid.", "setting": "[1]; addition of acid", "value": "Pale yellow"},
      {"measurement": "Growth", "setting": "[2]", "value": 2},
      {"measurement": "Fluo.", "setting": "[2]; UV lamp 365 nm", "value": "Green"},
      {"measurement": "Color post-acid.", "setting": "[2]; addition of acid", "value": "Orange"},
      {"measurement": "Growth", "setting": "[3]", "value": 2},
      {"measurement": "Fluo.", "setting": "[3]; UV lamp 365 nm", "value": "Green"},
      {"measurement": "Color post-acid.", "setting": "[3]; addition of acid", "value": "Orange"},
      {"measurement": "Growth", "setting": "[4]", "value": 2},
      {"measurement": "Color post-acid.", "setting": "[4]; addition of acid", "value": "Pale yellow"},
      {"measurement": "Growth", "setting": "[5]", "value": 2},
      {"measurement": "Color post-acid.", "setting": "[5]; addition of acid", "value": "Pale yellow"},
      {"measurement": "Growth", "setting": "[6]", "value": 2},
      {"measurement": "Color post-acid.", "setting": "[6]; addition of acid", "value": "Pale yellow"},
      {"measurement": "Growth", "setting": "[7]", "value": 2},
      {"measurement": "Color post-acid.", "setting": "[7]; addition of acid", "value": "Pale yellow"},
      {"measurement": "Color", "setting": "[8]", "value": "—"},
      {"measurement": "Growth", "setting": "[8]", "value": "NG"},
      {"measurement": "Fluo.", "setting": "[8]; UV lamp 365 nm", "value": "—"},
      {"measurement": "Color post-acid.", "setting": "[8]; addition of acid", "value": "—"},
      {"measurement": "Color", "setting": "[9]", "value": "—"},
      {"measurement": "Growth", "setting": "[9]", "value": "NG"},
      {"measurement": "Fluo.", "setting": "[9]; UV lamp 365 nm", "value": "—"},
      {"measurement": "Color post-acid.", "setting": "[9]; addition of acid", "value": "—"},
      {"measurement": "Color", "setting": "[10]", "value": "—"},
      {"measurement": "Growth", "setting": "[10]", "value": "NG"},
      {"measurement": "Fluo.", "setting": "[10]; UV lamp 365 nm", "value": "—"},
      {"measurement": "Color post-acid.", "setting": "[10]; addition of acid", "value": "—"},
      {"measurement": "Color", "setting": "[11]", "value": "—"},
      {"measurement": "Growth", "setting": "[11]", "value": "NG"},
      {"measurement": "Fluo.", "setting": "[11]; UV lamp 365 nm", "value": "—"},
      {"measurement": "Color post-acid.", "setting": "[11]; addition of acid", "value": "—"},
      {"measurement": "Color", "setting": "[12]", "value": "—"},
      {"measurement": "Growth", "setting": "[12]", "value": "NG"},
      {"measurement": "Fluo.", "setting": "[12]; UV lamp 365 nm", "value": "—"},
      {"measurement": "Color post-acid.", "setting": "[12]; addition of acid", "value": "—"},
      {"measurement": "Color", "setting": "[13]", "value": "—"},
      {"measurement": "Growth", "setting": "[13]", "value": "NG"},
      {"measurement": "Fluo.", "setting": "[13]; UV lamp 365 nm", "value": "—"},
      {"measurement": "Color post-acid.", "setting": "[13]; addition of acid", "value": "—"},
      {"measurement": "Color", "setting": "[14]", "value": "—"},
      {"measurement": "Growth", "setting": "[14]", "value": "NG"},
      {"measurement": "Fluo.", "setting": "[14]; UV lamp 365 nm", "value": "—"},
      {"measurement": "Color post-acid.", "setting": "[14]; addition of acid", "value": "—"},
      {"measurement": "Color", "setting": "[15]", "value": "—"},
      {"measurement": "Growth", "setting": "[15]", "value": "NG"},
      {"measurement": "Fluo.", "setting": "[15]; UV lamp 365 nm", "value": "—"},
      {"measurement": "Color post-acid.", "setting": "[15]; addition of acid", "value": "—"},
      {"measurement": "Color", "setting": "[16]", "value": "—"},
      {"measurement": "Growth", "setting": "[16]", "value": "NG"},
      {"measurement": "Fluo.", "setting": "[16]; UV lamp 365 nm", "value": "—"},
      {"measurement": "Color post-acid.", "setting": "[16]; addition of acid", "value": "—"},
      {"measurement": "Color", "setting": "[17]", "value": "—"},
      {"measurement": "Growth", "setting": "[17]", "value": "NG"},
      {"measurement": "Fluo.", "setting": "[17]; UV lamp 365 nm", "value": "—"},
      {"measurement": "Color post-acid.", "setting": "[17]; addition of acid", "value": "—"},
      {"measurement": "toxicity / growth of microorganisms", "setting": "[18]", "value": "toxic with respect to certain groups"}
    ]}
  ]
}
